ChEMBL document CHEMBL1201862, “PubChem BioAssay data set” (2004)
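Cells were grown in 96-well plates and exposed to each compound for 48 hours at five concentrations; endpoints were interpolated linearly between bracketing concentrations, or set to the highest concentration if not reached. GI50: concentration for 50% inhibition of growth.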 The source made the active and inactive calls. Rule as the data show it: active = GI50 up to about 1.1 µM and inactive = higher.

Key:
Assay in all cases: NCI tumour cell line growth inhibition, 48 h
[1] = tested on: OVCAR-8
[2] = tested on: SNB-19
[3] = tested on: HCT-15
[4] = tested on: M14
[5] = tested on: UACC-62
[6] = tested on: U-251
[7] = tested on: NCI-H460
[8] = tested on: COLO 205
[9] = tested on: IGROV-1
[10] = tested on: TK-10
[11] = tested on: SF-295
[12] = tested on: HOP-92
[13] = tested on: ACHN
[14] = tested on: NCI-H23
[15] = tested on: NCI-H522
[16] = tested on: NCI-H226
[17] = tested on: SN12C
[18] = tested on: A498
[19] = tested on: SR

Structure (SMILES)	GI50 [1]	GI50 [2]	GI50 [3]	GI50 [4]	GI50 [5]	GI50 [6]	GI50 [7]	GI50 [8]	GI50 [9]	GI50 [10]	GI50 [11]	GI50 [12]	GI50 [13]	GI50 [14]	GI50 [15]	GI50 [16]	GI50 [17]	GI50 [18]	GI50 [19]
CN(C)NC1=C([N+](=O)[O-])C=NN(c2ccccc2)C1	2.04 µM (inactive)	2.54 µM (inactive)	1.55 µM	1.82 µM (inactive)	1.71 µM (inactive)	1.76 µM (inactive)	2.09 µM (inactive)	1.79 µM (inactive)	2.19 µM (inactive)	3.19 µM (inactive)	1.81 µM (inactive)	2.02 µM (inactive)	1.73 µM (inactive)	1.87 µM (inactive)	0.177 µM (active)	3.84 µM (inactive)	1.76 µM (inactive)	20.9 µM (inactive)	0.811 µM (active)
COc1ccc(OC)c(NC(=O)CCC/C(CC(=O)c2ccc(O)c(OC)c2)=N\NC(=O)C[N+](C)(C)C)c1	> 100 µM (inactive)	> 100 µM (inactive)	> 100 µM	> 100 µM (inactive)	> 100 µM (inactive)	> 100 µM (inactive)	> 100 µM (inactive)	> 100 µM (inactive)	> 100 µM (inactive)	> 100 µM (inactive)	> 100 µM (inactive)	> 100 µM (inactive)	> 100 µM (inactive)	> 100 µM (inactive)	> 100 µM (inactive)	> 100 µM (inactive)	> 100 µM (inactive)	> 100 µM (inactive)	> 100 µM (inactive)
O=C(O)/C=C\C(=O)c1ccc(Cl)cc1	> 74.6 µM (inactive)	> 63 µM (inactive)	20.7 µM	18.5 µM (inactive)	29.9 µM (inactive)	> 56.9 µM (inactive)	> 100 µM (inactive)	19.6 µM (inactive)	> 70.1 µM (inactive)	40.5 µM (inactive)	> 100 µM (inactive)	24.5 µM (inactive)	21.3 µM (inactive)	31.8 µM (inactive)	> 100 µM (inactive)	> 55.8 µM (inactive)	51.9 µM (inactive)	79.8 µM (inactive)	24.3 µM (inactive)
CC1(Cl)CC2OC3(Br)C=CC(C)(O)C2(CC1Br)C3(C)C (stereo unspecified)	> 100 µM (inactive)	> 100 µM (inactive)	> 100 µM	> 100 µM (inactive)	> 100 µM (inactive)	> 100 µM (inactive)	> 100 µM (inactive)	> 100 µM (inactive)	> 100 µM (inactive)	> 100 µM (inactive)	> 100 µM (inactive)	50.9 µM (inactive)	> 100 µM (inactive)	> 100 µM (inactive)		> 100 µM (inactive)	> 100 µM (inactive)	> 100 µM (inactive)	23.6 µM (inactive)
Cc1cc([N+](=O)[O-])c(S(=O)(=O)c2ccccc2)c([N+](=O)[O-])c1	6.9 µM (inactive)	18.5 µM (inactive)	16 µM	5.93 µM (inactive)	7.69 µM (inactive)	13.5 µM (inactive)	13.4 µM (inactive)	9.51 µM (inactive)	12.6 µM (inactive)	17.9 µM (inactive)	18.8 µM (inactive)	2.43 µM (inactive)	16.5 µM (inactive)	8.53 µM (inactive)	1.73 µM (inactive)	12.2 µM (inactive)	4.43 µM (inactive)	18.2 µM (inactive)	4.59 µM (inactive)
COc1ccc(C2=C[C@]3(O)CCCN3C[C@@H]2c2ccc(OC)c(OC)c2)cc1	< 0.0001 µM (active)	< 0.0001 µM (active)	< 0.0001 µM	< 0.0001 µM (active)	< 0.0001 µM (active)	< 0.0001 µM (active)	< 0.0001 µM (active)	< 0.0001 µM (active)	< 0.0001 µM (active)	< 0.0001 µM (active)	< 0.0001 µM (active)	< 0.0001 µM (active)	< 0.0001 µM (active)	< 0.0001 µM (active)	< 0.0001 µM (active)	< 0.0001 µM (active)	< 0.0001 µM (active)	< 0.0001 µM (active)	< 0.0001 µM (active)
COc1cc(Br)c(/C=N/N=C(\N)NO)cc1OC	15.6 µM (inactive)	46.3 µM (inactive)	36 µM	16.4 µM (inactive)	11.1 µM (inactive)	23.4 µM (inactive)	5.22 µM (inactive)	11 µM (inactive)	30.4 µM (inactive)	7.69 µM (inactive)	28.5 µM (inactive)	23.6 µM (inactive)	9.35 µM (inactive)	26 µM (inactive)	15.2 µM (inactive)	10.9 µM (inactive)	24.6 µM (inactive)	32.8 µM (inactive)	11.8 µM (inactive)
[O-][S+]1CSCS1 (stereo unspecified)	> 100 µM (inactive)	> 100 µM (inactive)		> 100 µM (inactive)	> 100 µM (inactive)	> 100 µM (inactive)		> 100 µM (inactive)	> 100 µM (inactive)	> 100 µM (inactive)	> 100 µM (inactive)	> 100 µM (inactive)	> 100 µM (inactive)	> 100 µM (inactive)	> 100 µM (inactive)	> 100 µM (inactive)	> 100 µM (inactive)	> 100 µM (inactive)	> 100 µM (inactive)
N#Cc1c(-c2ccco2)cc(-c2ccc(N)cc2)[nH]c1=O	> 100 µM (inactive)	> 100 µM (inactive)	> 100 µM	> 100 µM (inactive)	> 100 µM (inactive)	> 100 µM (inactive)	> 100 µM (inactive)		> 100 µM (inactive)	> 100 µM (inactive)	> 100 µM (inactive)	> 100 µM (inactive)	> 100 µM (inactive)	> 100 µM (inactive)	> 100 µM (inactive)	> 100 µM (inactive)	> 100 µM (inactive)	> 100 µM (inactive)	> 100 µM (inactive)
Cc1cc(NS(=O)(=O)c2ccc(Nc3c4ccccc4nc4c(C(=O)Nc5ccc(S(=O)(=O)N=C(N)N)cc5)ccc(Cl)c34)cc2)no1	19.3 µM (inactive)	31.7 µM (inactive)		> 100 µM (inactive)	25.1 µM (inactive)	28.6 µM (inactive)	98.9 µM (inactive)	83 µM (inactive)		> 100 µM (inactive)	73.3 µM (inactive)		60.5 µM (inactive)	29.9 µM (inactive)	16 µM (inactive)	28.2 µM (inactive)	31.2 µM (inactive)	44.6 µM (inactive)	25.2 µM (inactive)
COc1ccc(C(=O)NCCC2=CCCCC2)cc1	> 100 µM (inactive)	> 100 µM (inactive)	> 100 µM		> 100 µM (inactive)	> 100 µM (inactive)	> 100 µM (inactive)	> 100 µM (inactive)	> 100 µM (inactive)	> 100 µM (inactive)	> 100 µM (inactive)	78.5 µM (inactive)	> 100 µM (inactive)	> 100 µM (inactive)			> 100 µM (inactive)	85.7 µM (inactive)	> 100 µM (inactive)
COCOCCCCCO[Si](C)(C)C(C)(C)C	19.5 µM (inactive)	16 µM (inactive)	17.7 µM	19 µM (inactive)	25.3 µM (inactive)	15.8 µM (inactive)	19.6 µM (inactive)	19 µM (inactive)	32.6 µM (inactive)	33 µM (inactive)	14.8 µM (inactive)	17.7 µM (inactive)	14.4 µM (inactive)	17.2 µM (inactive)	13.7 µM (inactive)		17.2 µM (inactive)	29.4 µM (inactive)	18.2 µM (inactive)
CC1CC(C)C(=O)C(C(=O)CC2CC(=O)NC2=O)C1 (stereo unspecified)	> 100 µM (inactive)	> 100 µM (inactive)		> 100 µM (inactive)	> 100 µM (inactive)	> 100 µM (inactive)	> 100 µM (inactive)	> 100 µM (inactive)	> 100 µM (inactive)	> 100 µM (inactive)	> 100 µM (inactive)	> 100 µM (inactive)	> 100 µM (inactive)	> 100 µM (inactive)	> 100 µM (inactive)	> 100 µM (inactive)	> 100 µM (inactive)	> 100 µM (inactive)	> 100 µM (inactive)
CCn1c(CSc2nc(-c3ccccc3)c(-c3ccccc3)[nH]2)n[nH]c1=S	> 100 µM (inactive)	> 100 µM (inactive)	> 100 µM	> 100 µM (inactive)		> 100 µM (inactive)	> 100 µM (inactive)	> 100 µM (inactive)	> 100 µM (inactive)	> 100 µM (inactive)	> 100 µM (inactive)	> 100 µM (inactive)	> 100 µM (inactive)	> 100 µM (inactive)	> 100 µM (inactive)	> 100 µM (inactive)	> 100 µM (inactive)	> 100 µM (inactive)	> 100 µM (inactive)
S=C1OC2C3C4CC5C3C(O1)C1C5C4C21 (stereo unspecified)	> 100 µM (inactive)	> 100 µM (inactive)	> 100 µM	> 100 µM (inactive)	> 100 µM (inactive)	> 100 µM (inactive)	58.5 µM (inactive)	> 100 µM (inactive)	> 100 µM (inactive)	> 100 µM (inactive)	> 100 µM (inactive)	> 100 µM (inactive)	> 100 µM (inactive)		> 100 µM (inactive)	> 100 µM (inactive)	> 100 µM (inactive)	> 100 µM (inactive)	> 100 µM (inactive)
